Test: Inhibition of Clostridium perfringens carbonic anhydrase preincubated for 15 mins by stopped flow CO2 hydration assay

Going from `CC(=O)Nc1nnc(S(N)(=O)=O)s1` [ACETAZOLAMIDE] to `NS(=O)(=O)O` [SULFAMATE], the Ki rises from 4.9e-05 mM to 0.009 mM (180-fold).

Going from `CCN(CC)C(=S)S` [DITIOCARB SODIUM] to `S=C(S)S` [SODIUM CARBONOTRITHIOATE], the Ki rises from 0.36 mM to 1 mM (2.8-fold). The first binds more tightly here.

Compared with `O=[As](O)(O)c1ccccc1` [PHENYLARSONIC ACID], `OB(O)c1ccccc1` [PHENYLBORONIC ACID] is 11-fold higher in Ki: 0.007 mM for the first, 0.075 mM for the second. The first binds more tightly here.

Compared with `[N-]=[N+]=[N-]` [SODIUM AZIDE], `O=C([O-])O.[Na+]` [SODIUM BICARBONATE] is 2-fold lower in Ki: 4.2 mM for the first, 2.1 mM for the second. The second binds more tightly here.

First: O=S([O-])O.[Na+] [SODIUM BISULFITE]
Second: O=C([O-])[O-].[Na+].[Na+] [SODIUM CARBONATE]
The Ki of the first is 7.5-fold higher: 4.9 mM for the first, 0.65 mM for the second. The second binds more tightly here.

First: [Br-].[Na+] [SODIUM BROMIDE]
Second: [Cl-].[Na+] [SODIUM CHLORIDE]
The Ki of the first is 5-fold higher: 21.5 mM for the first, 4.3 mM for the second. The second binds more tightly here.

Going from `[F-].[Na+]` [SODIUM FLUORIDE] to `[I-].[Na+]` [SODIUM IODIDE], the Ki rises from 4.8 mM to 63.4 mM (13-fold).

`S` [SODIUM HYDROSULFIDE] and `O=S(=O)(O)ONOS(=O)(=O)O` [SODIUM IMINODISULFATE] are within 1.5-fold of each other in Ki: 4 mM for the first, 4.9 mM for the second.

Compared with `N=C=S` [SODIUM ISOTHIOCYANATE], `O=[N+]([O-])[O-].[Na+]` [SODIUM NITRATE] is 5.5-fold higher in Ki: 0.83 mM for the first, 4.6 mM for the second.

First: O=NO [SODIUM NITRITE]
Second: O=[Se](=O)(O)O [SODIUM SELENATE]
The Ki of the first is 8.7-fold higher: 4.1 mM for the first, 0.47 mM for the second. The second binds more tightly here.

Going from `[O-][Cl+3]([O-])([O-])O` [SODIUM PERCHLORATE] to `O=S(=O)([O-])[O-].[Na+].[Na+]` [SODIUM SULFATE ANHYDROUS], the Ki falls from over 200 mM to 7.9 mM. The second binds more tightly here.

Going from `O=S(=O)(O)OOS(=O)(=O)O` [SODIUM PERSULFATE] to `O=[Te](=O)(O)O` [SODIUM TELLURATE], the Ki falls from 9.2 mM to 3.3 mM (2.8-fold).

`O=P(O)(O)OP(=O)(O)O` [SODIUM PYROPHOSPHATE] and `O=BOB(O)OB(O)OB=O` [SODIUM TETRABORATE] are within 1.5-fold of each other in Ki: 2.7 mM for the first, 2.5 mM for the second.

With `F[B-](F)(F)F.[Na+]` [SODIUM TETRAFLUOROBORATE] the Ki was over 200 mM.

From ChEMBL document CHEMBL3091278 (Bioorg Med Chem Lett, 2013)
